# Reference: patent publication US10780094B2, “Use of carbonic anhydrase inhibitors for treatment of neurological and psychiatric disorders” (New York University, priority 2016, dated 2020)
# What was measured:
# Format in all cases: cell-based, human
# caspase 9 in glial cells = experiment: Caspase-Glo 9 activity after Aβ challenge
# Experimental: Caspase 9 and caspase 3/7 activation was measured by luminescent assays (Caspase-Glo 9 and caspase-Glo 3/7, Promega, Madison, Wis.), in cells treated with the Aβ peptides in DMEM without FBS. Briefly, 10,000 cells/well were plated in 96 wells plates and incubated for 24 hours with the freshly solubilized Aβ peptides. Caspase-Glo reagent was added to the cell cultures resulting in cell lysis, followed by caspase cleavage of the substrate and generation of a luminescent signal produced by the luciferase reaction. After 40 minutes incubation, the amount of caspase activity was evaluated in a plate-reading luminometer (Synergy HT Multi-Mode Microplate Reader, Biotek, Winooski, Vt.) as described in (Fossati et al., 2012b). To inhibit non-specific background activity, the proteasome inhibitor MG-132 was added to the Caspase-Glo reagent before the experiment as indicated by the manufacturer. In all cases results are expressed as fold-change compared to untreated control cells.
# [1] = test system: cerebral microvascular endothelial cells (D3); experiment: Aβ-induced mitochondrial Cytochrome C release; settings: Example 3
# Experimental: Both EC and SH-SY5Y cells were plated on to glass chamber slides (Thermo Fisher Scientific), pre-coated with either collagen-I or poly-d-lysine (for ECs and SH-SY5Y cells respectively). After seeding, cells were allowed to attach for 1 day before treatment with the different peptides for 1-3 days, as above. Cells were washed with ice-cold PBS, fixed with 4% paraformaldehyde (10 min at room temperature) and blocked for 1 h with 20 mg/ml BSA in PBST (PBS containing 0.3% Triton X-100). Slides were further incubated with mouse anti-CytC monoclonal antibody (BD Biosciences; 1:200 dilution in PBST containing 5 mg/ml BSA; 2 h at room temperature) followed by Alexa Fluor® 488-conjugated anti-(mouse IgG) antibody (Invitrogen; 1:200 in PBST with 5 mg/ml BSA; 1 h at room temperature). Fluorescence signals were visualized in a Nikon Eclipse E 800 deconvolution microscope using NIS Elements software (Nikon Instruments) for image acquisition and processing, and AutoQuant (Media Cybernetics) for 3D deconvolution. The effect of methazolamide in preventing the Aβ-induced release of CytC from the mitochondria into the cytoplasm was evaluated in EC and SH-SY5Y cultures. […]
# Glioma cells = experiment: Aβ-induced mitochondrial Cytochrome C release
# Experimental: (§1) Both SH-SY5Y cells and Glioma cells were plated on glass chamber slides (Thermo Fisher Scientific, Rochester, N.Y.). Slides were pre-coated with poly-D-lysine for SH-SY5Y cells. After seeding, cells were allowed to attach for 1 day prior to treatment with Aβ in the presence or absence of MTZ for 24 hours. Cells were then washed with PBS, fixed with 4% paraformaldehyde (10 min, RT) and blocked for 1 hour with 20 mg/ml BSA in PBS containing 0.3% Triton X-100 (PBST). Slides were further incubated with mouse monoclonal anti-CytC antibody (BD Biosciences; 1:200 in PBST containing 5 mg/ml BSA; 2 h, RT) followed by Alexa Fluor 488-conjugated anti-mouse IgG (Life Technologies, Grand Island, N.Y.) 1:200 in PBST with 5 mg/ml BSA for 1 h at RT, as previously described (Fossati et al., 2013). Fluorescence signals were visualized in a Zeiss LSM 510 laser scanning confocal/Confocor2 microscope using a 40×DIC oil immersion objective and LSM 510 software; acquired images were imported into ImageJ (National Institute of Health; http://rsbweb.nih.gov/ij/).
# (§2) Subcellular distribution of CytC in amyloid-challenged SH-SY5Y and glioma cells was determined in mitochondrial and cytoplasmic protein extracts prepared using Mitochondria Isolation Kit (MITOISO2, Sigma) following the manufacturer's specifications. Briefly, after amyloid challenge in the presence and absence of Methazolamide, as above, cells were collected by trypsinization, resuspended in 10 mM HEPES, pH 7.5, containing 200 mM mannitol, 70 mM sucrose, 1 mM EGTA added of Protease Inhibitor Cocktail, and homogenized with the aid of a Dounce glass homogenizer. Cell homogenates were centrifuged to remove unbroken cells and nuclei (600×g, 5 min, 4° C.) and supernatants further centrifuged at 11,000×g (5 min, 4° C.) to subfractionate mitochondria. Supernatants, representing the cytosolic fractions as well as mitochondrial fractions were analyzed by CytC ELISA and WB.
# (§3) The concentration of CytC in cytosolic and mitochondrial fractions was quantitated by solid phase sandwich ELISA (Quantikine ELISA, human Cytochrome C Immunoassay, R&D Systems) as described by the manufacturer. Prior to the assay, fractions containing cytoplasmic proteins were concentrated on Vivaspin 500 centrifugal concentrators (GE HealthCare, molecular weight cut off 5000), mitochondrial pellets were resuspended in Cell Lysis Buffer provided with the kit, and total protein of the respective fractions was evaluated by BCA protein assay (Thermo Fisher Scientific/Pierce). […] After washing away unbound proteins, wells were further incubated with an HRP-linked monoclonal antibody anti-human CytC, color developed with tetramethylbenzinine peroxidase substrate, and evaluated through quantitation of the Absorbance at 450 nm. […]
# SH-SY5Y cells = experiment: Aβ-induced mitochondrial Cytochrome C release
# Experimental: as §1, §2, §3
# [2] = 100 μM MTZ together with Aβ42 10 μM, 24 hours
# [3] = MTZ 100 and 300 μM, Aβ42 10 μM, 24 h
compound,measurement,setting,value
"CC(=O)/N=c1/sc(S(N)(=O)=O)nn1C [MTZ, methazolamide]",caspase 9 over-activation,"caspase 9 in glial cells; 100 or 300 μM MTZ, 10 μM Aβ42, 24 hours",significantly reduced
same,"caspase 9 activity, drug alone",caspase 9 in glial cells; MTZ alone in absence of Aβ,did not have any effect
same,CytC localization (immunocytochemistry),"[1]; Aβ40-Q22 25 μM or Aβ40/42 WT 10 μM, 24 h",retained in the mitochondria
same,"release of CytC, cells with diffuse green staining as % of total cells",[1]; FIG. 23B,prevented
same,release of CytC (immunocytochemistry),Glioma cells; [2],prevented
same,release of CytC by ELISA and Western blot in mitochondrial and cytosolic fractions,Glioma cells; [3],inhibition
same,release of CytC (immunocytochemistry),SH-SY5Y cells; [2],prevented
same,release of CytC by ELISA and Western blot in mitochondrial and cytosolic fractions,SH-SY5Y cells; [3],inhibition
